From patent US20260042755A1, “GPR6 INVERSE AGONISTS” (MapLight Therapeutics, Inc., priority 2022, published 2026)

Experiments:
GPR6 = target: T1, GPR6 (Homo sapiens, UniProt P46095); assay: GPR6 antagonist functional cAMP assay (LANCE Ultra cAMP TR-FRET, CHO cells stably expressing GPR6); format: cell-based
T1 construct: expressed in transfected cells; host or cells: CHO cells
Summary of the method: (§1)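 Stable CHO-GPR6 or CHO-GPR3 cells (10,000/well) in Krebs-Ringer buffer with 0.1% BSA and 150 μM Ro 20-1724 were exposed to compounds for 45 min at 37° C (0.1% DMSO). cAMP read by LANCE Ultra TR-FRET; IC50 from 4-parameter fit normalized to DMSO and reference compounds.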

GPR3 = target: T2, GPR3 (Homo sapiens, UniProt P46089); assay: GPR3 antagonist functional cAMP assay (LANCE Ultra cAMP TR-FRET, CHO cells stably expressing GPR3); format: cell-based
T2 construct: expressed in transfected cells; host or cells: CHO cells
T2 sequence (P46089 whole entry, species assumed): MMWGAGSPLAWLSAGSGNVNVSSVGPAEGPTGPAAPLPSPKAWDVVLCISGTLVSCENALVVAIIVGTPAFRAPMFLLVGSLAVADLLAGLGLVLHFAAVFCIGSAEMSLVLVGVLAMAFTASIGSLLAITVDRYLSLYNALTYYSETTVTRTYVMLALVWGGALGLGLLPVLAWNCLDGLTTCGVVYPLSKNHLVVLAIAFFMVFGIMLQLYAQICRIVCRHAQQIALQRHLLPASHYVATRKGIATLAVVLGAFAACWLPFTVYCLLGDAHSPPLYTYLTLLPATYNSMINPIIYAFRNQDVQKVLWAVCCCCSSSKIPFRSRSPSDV
Summary of the method: as §1

[1] = procedure as described in Example 24
[2] = CHO cells stably expressing GPR6, cAMP assay (Example 24)
[3] = CHO cells stably expressing GPR3, cAMP assay (Example 24)
[4] = CHO cells stably expressing GPR6, cAMP assay
[5] = CHO cells stably expressing GPR3, cAMP assay

T1 sequence (P46095 whole entry): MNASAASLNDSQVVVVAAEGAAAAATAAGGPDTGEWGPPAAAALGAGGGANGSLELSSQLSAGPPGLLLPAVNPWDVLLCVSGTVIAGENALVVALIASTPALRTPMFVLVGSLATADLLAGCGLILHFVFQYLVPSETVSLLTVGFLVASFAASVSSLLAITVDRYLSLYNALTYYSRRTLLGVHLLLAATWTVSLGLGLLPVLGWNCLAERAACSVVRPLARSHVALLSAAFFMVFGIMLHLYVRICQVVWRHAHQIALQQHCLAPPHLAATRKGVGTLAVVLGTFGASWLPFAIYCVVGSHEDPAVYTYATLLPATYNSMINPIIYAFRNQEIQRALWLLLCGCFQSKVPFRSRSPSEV

Compound | IC50 (GPR6; procedure of Example 24) [µM] | IC50 (GPR3; procedure of Example 24) [µM] | other results
CC(C)(O)C(C)(O)c1cc2nc(N3CCC(Oc4ccc(F)cc4F)CC3)c(-c3cnn(CF)c3)nc2cn1 (centres unmarked) [Compound 636, 2-{2-[4-(2,4-difluorophenoxy)-1-piperidyl]-3-[1-(fluoromethyl)-4-pyrazolyl]-1,4,6-triaza-7-naphthyl}-3-methyl-2,3-butanediol] | 0.1 to 1 | 1 to 30 | 
CC(=O)N1CCc2nc(N3CCC(Oc4ccc(F)cc4F)CC3)c(-c3ncc[nH]3)nc2C1 [Compound 40, 1-(2-(4-(2,4-difluorophenoxy)piperidin-1-yl)-3-(1H-imidazol-2-yl)-7,8-dihydropyrido[3,4-b]pyrazin-6(5H)-yl)ethan-1-one] |  |  | IC50 (GPR6; [1]): 1 to 30 µM; IC50 (GPR3; [1]): 1 to 30 µM
Cn1cc(-c2nc3cnc([C@@H](O)C(C)(C)O)cc3nc2N2CCC(=Cc3ccc(F)cc3F)CC2)cn1 (single isomer, unassigned) [Compound 719] | < 0.1 | 1 to 30 | 
COc1ccc(-c2nc3c(nc2N2CCC(Oc4ccc(F)cc4F)CC2)CCN(C(C)=O)C3)nn1 [Compound 189, 1-{2-[4-(2,4-difluorophenoxy)piperidin-1-yl]-3-(6-methoxypyridazin-3-yl)-5H,6H,7H,8H-pyrido[3,4-b]pyrazin-6-yl}ethan-1-one] |  |  | IC50 (GPR6; [2]): 0.1 to 1 µM; IC50 (GPR3; [3]): 1 to 30 µM
CNC(=O)c1cc2nc(N3CCC(Oc4ccc(F)cc4F)CC3)c(-c3cncc(OC)n3)nc2cn1 [Compound 222, 2-[4-(2,4-difluorophenoxy)piperidin-1-yl]-3-(6-methoxypyrazin-2-yl)-N-methylpyrido[3,4-b]pyrazine-7-carboxamide] |  |  | IC50 (GPR6; [2]): 1 to 30 µM; IC50 (GPR3; [3]): 1 to 30 µM
CCc1cccc(-c2nc3c(nc2N2CCC(Oc4ccc(F)cc4F)CC2)CCN(C(C)=O)C3)n1 [Compound 477, 1-{2-[4-(2,4-difluorophenoxy)piperidin-1-yl]-3-(6-ethylpyridin-2-yl)-5H,6H,7H,8H-pyrido[3,4-b]pyrazin-6-yl}ethan-1-one] |  |  | IC50 (GPR6; [2]): 1 to 30 µM; IC50 (GPR3; [3]): 1 to 30 µM
CN1CC(c2cc3nc(N4CCC(Oc5ccc(F)cc5F)CC4)c(-c4cnn(C)c4)nc3cn2)OC1=O (centres unmarked) [Compound 482, 5-(2-(4-(2,4-difluorophenoxy)piperidin-1-yl)-3-(1-methyl-1H-pyrazol-4-yl)pyrido[3,4-b]pyrazin-7-yl)-3-methyloxazolidin-2-one] |  |  | IC50 (GPR6; [2]): 0.1 to 1 µM; IC50 (GPR3; [3]): 1 to 30 µM
CC(C)(O)[C@](C)(O)c1cc2nc(N3CCN(Cc4ccc(F)cc4F)CC3)c(-c3cnn(CF)c3)nc2cn1 (single isomer, unassigned) [Compound 649] | 0.1 to 1 | 1 to 30 | 
CC(C)(O)[C@](C)(O)c1cc2nc(-c3cnn(CF)c3)c(N3CCN(Cc4ccc(F)cc4F)CC3)nc2cn1 (single isomer, unassigned) [Compound 712] | 0.1 to 1 | 1 to 30 | 
CC(=O)N1CCc2nc(N3CCC(Oc4ccc(F)cc4F)CC3)c(-c3c(C)nn(C4CCCCO4)c3C)nc2C1 (centres unmarked) [Compound 47, 1-{2-[4-(2,4-difluorophenoxy)piperidin-1-yl]-3-[3,5-dimethyl-1-(oxan-2-yl)-1H-pyrazol-4-yl]-5H,6H,7H,8H-pyrido[3,4-b]pyrazin-6-yl}ethan-1-one] |  |  | IC50 (GPR6; [1]): 1 to 30 µM; IC50 (GPR3; [1]): 1 to 30 µM
CC(C)(O)C(=O)c1cc2nc(N3CCN(Cc4ccccc4F)CC3)c(-c3cnn(CF)c3)nc2cn1 [Compound 608, 1-{3-[1-(fluoromethyl)-4-pyrazolyl]-2-{4-[(o-fluorophenyl)methyl]-1-piperazinyl}-1,4,6-triaza-7-naphthyl}-2-hydroxy-2-methyl-1-propanone] |  |  | IC50 (GPR6; [4]): 0.1 to 1 µM; IC50 (GPR3; [5]): 1 to 30 µM
CC(=O)N1CCc2nc(N3CCC(Oc4ccc(F)cc4F)CC3)c(-c3cnc4n3CCN(C)C4)nc2C1 [Compound 90, 1-(2-(4-(2,4-difluorophenoxy)piperidin-1-yl)-3-(7-methyl-5,6,7,8-tetrahydroimidazo[1,2-a]pyrazin-3-yl)-7,8-dihydropyrido[3,4-b]pyrazin-6(5H)-yl)ethan-1-one] |  |  | IC50 (GPR6; [2]): 1 to 30 µM; IC50 (GPR3; [3]): 1 to 30 µM
CC(=O)N1CCc2nc(N3CCN(Cc4cc(Cl)ccc4Cl)CC3)c(-c3ccc(F)c(N)n3)nc2C1 [Compound 580, 1-[3-(6-amino-5-fluoro-2-pyridyl)-2-{4-[(2,5-dichlorophenyl)methyl]-1-piperazinyl}-5,6,7,8-tetrahydro-1,4,6-triaza-6-naphthyl]-1-ethanone] |  |  | IC50 (GPR6; [4]): < 0.1 µM; IC50 (GPR3; [5]): 1 to 30 µM
CC(=O)N1CCc2nc(N3CCC(Oc4ccc(F)cc4F)CC3)c(-c3cccc(=O)[nH]3)nc2C1 [Compound 33, 6-(6-acetyl-2-(4-(2,4-difluorophenoxy)piperidin-1-yl)-5,6,7,8-tetrahydropyrido[3,4-b]pyrazin-3-yl)pyridin-2(1H)-one] |  |  | IC50 (GPR6; [1]): 0.1 to 1 µM; IC50 (GPR3; [1]): 1 to 30 µM
COC[C@@H](O)c1cc2nc(-c3cnn(C)c3)c(N3CCC(Oc4ccc(F)cc4F)CC3)nc2cn1 (single isomer, unassigned) [Compound 680] | < 0.1 | 0.1 to 1 | 
CC(=O)N1CCc2nc(N3CCCC(Oc4ccccc4)C3)c(-c3cnn(C)c3)nc2C1 (centres unmarked) [Compound 335, 1-[3-(1-methyl-1H-pyrazol-4-yl)-2-(3-phenoxypiperidin-1-yl)-5H,6H,7H,8H-pyrido[3,4-b]pyrazin-6-yl]ethan-1-one] | ≥ 30 | 1 to 30 | 
CC(=O)N1CCc2nc(N3CCN(Cc4ccc(Cl)cc4Cl)CC3)c(-c3ccc(F)c(N)n3)nc2C1 [Compound 637, 1-[3-(6-amino-5-fluoro-2-pyridyl)-2-{4-[(2,4-dichlorophenyl)methyl]-1-piperazinyl}-5,6,7,8-tetrahydro-1,4,6-triaza-6-naphthyl]-1-ethanone] | 0.1 to 1 | 1 to 30 | 

Continued, in another order:

IC50 (GPR6; procedure of Example 24) [µM] | IC50 (GPR3; procedure of Example 24) [µM] | Compound | other results
≥ 30 | 1 to 30 | CC(=O)N1CCc2nc(N3CCCC(Oc4ccc(F)cc4)C3)c(-c3cnn(C)c3)nc2C1 (centres unmarked) [Compound 338, 1-{2-[3-(4-fluorophenoxy)piperidin-1-yl]-3-(1-methyl-1H-pyrazol-4-yl)-5H,6H,7H,8H-pyrido[3,4-b]pyrazin-6-yl}ethan-1-one] | 
0.1 to 1 | 1 to 30 | FCn1cc(-c2nc3cc(Cl)ncc3nc2N2CCN(Cc3ccc(F)cc3F)CC2)cn1 [Compound 761, 7-chloro-3-{4-[(2,4-difluorophenyl)methyl]-1-piperazinyl}-2-[1-(fluoromethyl)-4-pyrazolyl]-1,4,6-triazanaphthalene] | 
< 0.1 | 1 to 30 | COC(=O)N1CCc2nc(N3CCC(Oc4ccc(F)cc4F)CC3)c(-c3ccc(F)c(N)n3)nc2C1 [Compound 611, 6-{2-[4-(2,4-difluorophenoxy)-1-piperidyl]-6-methoxycarbonyl-5,6,7,8-tetrahydro-1,4,6-triaza-3-naphthyl}-3-fluoro-2-pyridylamine] | 
< 0.1 | 1 to 30 | CC(C)(O)C(C)(O)c1cc2nc(-c3cnn(C(F)F)c3)c(N3CCN(Cc4ccc(F)cc4F)CC3)nc2cn1 (single isomer, unassigned) [Compound 663] | 
< 0.1 | 1 to 30 | C=CC(=O)N1CCc2nc(N3CCC(Oc4ccc(F)cc4F)CC3)c(-c3cnn(CC)c3)nc2C1 [Compound 310, 1-{2-[4-(2,4-difluorophenoxy)piperidin-1-yl]-3-(1-ethyl-1H-pyrazol-4-yl)-5H,6H,7H,8H-pyrido[3,4-b]pyrazin-6-yl}prop-2-en-1-one] | 
